Source: article PMC10063609, “Discovery of novel cardiac troponin activators using fluorescence polarization-based high throughput screening assays” (Scientific Reports, 2023)
Several values for one entry are separate records, joined by “and”; a condition that tells them apart may be missing. Equal values may be shown once. Where a name gives a salt, the structure may show the parent alone. Read-outs that look alike come from different tables or passages of the source.

Columns and labels:
[1] = target: interaction between cTnC and switch peptide of cTnI (cTnISP) (Homo sapiens, UniProt P63316); assay: Fluorescence polarization HTS and dose-response, cTnC/FAM-cTnISP; assay type: binding; conditions: for Effect on FP from a mixture of FAM-cTnISP and cTnC: dose-response, concentration dependent (Fig. 2a)
Procedure: (§1) Each compound was tested at a concentration of 50 μmol/L and 10 μmol/L for the cTnISP and cTnIAR screen, respectively. Hits were defined as compounds that changed the average FP value more than five-times the standard deviation (SD) (Fig. 1d, red lines). Moreover, compounds that either increased or decreased the total fluorescence intensity (FI) more than five-times the SD were removed from further analysis, indicating either compound aggregation or unspecific interactions with the fluorophore or protein complex.
(§2) Libraries were reformatted from 96-well plates to Greiner 384-well black plates using a GILSON PipetMax. The plates were sealed with adhesive foil and stored at − 20 °C until further use. […] A total of 40 nL of 10 mmol/L compound stocks were transferred to each well using a Mosquito liquid handler system (final DMSO concentration of 0.1% (v/v)). The plates were incubated in the dark for 30 min at 25 °C, and the fluorescence polarization from each well was measured using a ClarioStar Plate reader with appropriate excitation and emission filter settings. Dose–response curves were constructed by serial dilution of compounds in DMSO and adding a fixed volume to a mixture of peptide and cTnC.
(§3) Fluorescence polarization dose–response and binding experiments were performed in Greiner 384-well black plates in assay buffer (20 mmol/L Tris–HCl pH 7, 100 mmol/L NaCl, 1 mmol/L CaCl2, 1 mmol/L DTT) at 25 °C.

[2] = system: bovine cardiac myofibrils; assay: NADH-coupled ATPase activity of isolated cardiac myofibrils; assay type: biochemical; conditions: submaximal calcium activation (~30% of maximum), pCa 6, up to 100 μmol/L
Procedure: Bovine cardiac myofibrils (CMF) were freshly prepared from bovine ventricle as previously described[49]. The NADH-coupled ATPase assay was adapted to test the effects of drugs on bovine cardiac myofibrils[50]. Briefly, buffers with varying free [Ca^2+] were prepared by adding the appropriate concentrations of EGTA and CaCl2 calculated using the MAXCHELATOR software. ATPase assays for hits identified in the cTnI switch peptide and anchoring region screens were performed at pCa 6 and pCa 5.8, respectively. […] 20 μL Enzyme mix was added to individual wells using a 12-well multichannel pipette. Appropriate concentrations of drugs were added to each well and the plate was shaken at 1000 rpm for 5 min on a plate shaker and further incubated at room temperature for 10 min. Substrate mix was dispensed into each well using the Gilson PipetMax. The plate was briefly spun down to ensure removal of air bubbles. The reaction was followed by recording the fluorescence intensity of each well with excitation at 380 nm and emission at 470 nm, for 10 min scanning the plate every 30 s. The temperature was kept constant at 25 °C. ATPase rates were extracted by linear regression to datapoints in GraphPad Prism.

[3] = target: interaction between cTnC and the anchoring region of cTnI (cTnIAR) (Homo sapiens, UniProt P63316); assay: Fluorescence polarization HTS, binding and dose-response, cTnC/FAM-cTnIAR; conditions: cTnIAR primary screen, single concentration 10 μmol/L
Procedure: as §1, §2, §3

[4] = cTnISP primary screen, LOPAC 1280 library, single concentration 50 μmol/L
[5] = cTnISP primary screen, TOCRIScreen library, single concentration 50 μmol/L
[6] = cTnISP primary screen, ENZO Screenwell library, single concentration 50 μmol/L

CC(C)c1cccc(C(C)C)c1N1C(=O)c2ccc(O)cc2C1=O [5-HPP-33]
FP (mP) [1, 4]: 112 mP
Effect on FP from a mixture of FAM-cTnISP and cTnC [1]: increased the FP
Effect on ATPase activity of cardiac myofibrils [2]: no or little activation

O=C(NCc1ccc(C(F)(F)F)cc1)Nc1cccc2cnccc12 [A 425619]
FP (mP) ([3]; TOCRIScreen library): 105.5 mP

O=C(O)C[C@H]1CC[C@H](c2ccc(NC(=O)c3nnc(Nc4ccc(F)c(F)c4)o3)cc2)CC1 [AZD 3988]
FP (mP) ([3]; TOCRIScreen library): 115.5 mP

O=C(O)c1ccc(/C=C2\SC(=S)N(c3cccc(C(F)(F)F)c3)C2=O)cc1 [CFTR Inh172]
FP (mP) [1, 5]: 127.9 mP
Effect on FP from a mixture of FAM-cTnISP and cTnC [1]: increased the FP
Effect on ATPase activity of cardiac myofibrils [2]: no or little activation

N.N.O=C([O-])C1(C(=O)[O-])CCC1.[Pt+2] [Carboplatin]
FP (mP) ([3]; ENZO Screenwell library): 67.3 mP

[H]/N=C(\N/C(=N/[H])NCCCCCCNC(=N)NC(=N)Nc1ccc(Cl)cc1)Nc1ccc(Cl)cc1 [Chlorhexidine Dihydrochloride]
FP (mP) ([3]; ENZO Screenwell library): 58.8 mP

N.N.[Cl][Pt][Cl] [Cisplatin, Cis-Diamineplatinum(Ii) Dichloride]
FP (mP) ([3]; ENZO Screenwell library): 61.9 mP
FP (mP) ([3]; LOPAC 1280 library): 56.6 mP

Cc1ccc2[nH]c(=O)c(C3=NN(C(=O)CCC(=O)O)C(c4ccc(Br)cc4)C3)c(-c3ccccc3)c2c1 (stereo not drawn) [DQP 1105]
FP (mP) ([3]; TOCRIScreen library): 103 mP

Cc1cn[nH]c1 [Fomepizole]
FP (mP) ([3]; ENZO Screenwell library): 118 mP

CN(C)CCCn1cc(C2=C(c3c[nH]c4ccccc34)C(=O)NC2=O)c2ccccc21 [GF 109203X]
FP (mP) [1, 5]: 82.4 mP
FP (mP) ([3]; TOCRIScreen library): 104.5 mP

CCn1c(-c2nonc2N)nc2cnc(Oc3cccc(NC(=O)c4ccc(OCCN5CCOCC5)cc4)c3)cc21 [GSK 269962]
FP (mP) ([3]; TOCRIScreen library): 104.8 mP

CN(C)c1cc2c(Nc3ccc4c(cnn4Cc4ccccc4)c3)ncnc2cn1 [GW2974]
FP (mP) ([3]; LOPAC 1280 library): 117.8 mP

CC1Cc2ccccc2N1NC(=O)c1ccc(Cl)c(S(N)(=O)=O)c1 (stereo not drawn) [Indapamide]
FP (mP) ([3]; ENZO Screenwell library): 116.5 mP

O=C(O)c1ccc(-c2ccc(/C=C3\SC(=S)N(Cc4ccccc4)C3=O)o2)cc1 [Leukadherin-1]
FP (mP) ([3]; LOPAC 1280 library): 121.9 mP

O=C1c2c(O)ccc(O)c2C(=O)c2c(NCCNCCO)ccc(NCCNCCO)c21 [Mitoxantrone]
FP (mP) ([3]; LOPAC 1280 library): 57.1 mP

COc1cc(N2CCC(O)CC2)ccc1Nc1cc(Nc2ccccc2S(=O)(=O)C(C)C)c2cc[nH]c2n1.Cl.Cl [Mps1-IN-1 dihydrochloride]
FP (mP) [1, 5]: 84.6 mP

CC(C)[C@H]1c2ccc(F)cc2CC[C@@]1(CCN(C)CCCc1nc2ccccc2[nH]1)OC(=O)C1CC1 [NNC 55-0396]
FP (mP) [1, 4]: 88.7 mP

CC(C)(Cc1ccc2ccccc2c1)NC[C@@H](O)COc1cccc(Cl)c1C#N.Cl [NPS 2143 hydrochloride]
FP (mP) [1, 5]: 87.5 mP

O=C(Nc1cccc(C(F)(F)F)c1)Nc1ccc(Br)cc1-c1nn[nH]n1 [NS3623]
FP (mP) [1, 5]: 121.6 mP
Effect on FP from a mixture of FAM-cTnISP and cTnC [1]: increased the FP
Effect on ATPase activity of cardiac myofibrils [2]: significantly increased the ATPase activity

CCN(CC)CCCC(C)Nc1nc(C)cc(Nc2ccc3nc(C)cc(N)c3c2)n1 (stereo not drawn) [NSC 23766]
FP (mP) [1, 5]: 89.5 mP

Nc1ncnc2c1c(-c1cccc(OCc3ccccc3)c1)cn2C1CC(CN2CCCC2)C1 (stereo not drawn) [NVP ADW 742]
FP (mP) [1, 5]: 68.4 mP

NC(=O)N1c2ccccc2CC(=O)c2ccccc21 [Oxcarbazepine]
FP (mP) ([3]; ENZO Screenwell library): 70.9 mP

CCN(CC)CCOc1ccc(Nc2ncc3cc(-c4c(Cl)cccc4Cl)c(=O)n(C)c3n2)cc1.Cl.Cl [PD 166285 dihydrochloride]
FP (mP) [1, 5]: 78.7 mP

Cn1cc(-c2[nH]c3cc(NC(=O)[C@H](N)C4CCCCC4)cc4c3c2C=NNC4=O)cn1 [PF 477736]
FP (mP) [1, 5]: 64 mP

Cc1[nH]c(/C=C2\C(=O)Nc3ccc(S(=O)(=O)Cc4c(Cl)cccc4Cl)cc32)c(C)c1C(=O)N1CCC[C@@H]1CN1CCCC1 [PHA 665752]
FP (mP) [1, 5]: 76.4 mP

COc1ccc(Cl)cc1NC(=O)Nc1cc(C)nc2ccccc12 [PQ 401]
FP (mP) [1, 5]: 80.2 mP

OCCN1CCN(CCCN2c3ccccc3Sc3ccc(Cl)cc32)CC1 [Perphenazine]
FP (mP) [1, 6]: 73.2 mP

CN1CCN(CCCN2c3ccccc3Sc3ccc(Cl)cc32)CC1 [Prochlorperazine dimaleate]
FP (mP) [1, 4]: 86.2 mP
FP (mP) [1, 5]: 78.2 mP

NCCOc1cc(C(=O)Nc2cc(OCCN)c3ccccc3n2)nc(C(=O)Nc2cc(OCCN)c3ccccc3n2)c1 [Pyridostatin trifluoroacetate salt]
FP (mP) [1, 4]: 85.6 mP

O=C(c1ccc(OCCN2CCCCC2)cc1)c1c(-c2ccc(O)cc2)sc2cc(O)ccc12 [Raloxifene.HCl]
FP (mP) [1, 6]: 76.9 mP
FP (mP) [1, 4]: 85.5 mP
FP (mP) ([1]; cTnISP primary screen, TOCRIScreen library, single concentration 50 μmol/L, listed as Raloxifene hydrochloride): 87.9 mP and 82.1 mP

CCOc1cc(CC(=O)N[C@@H](CC(C)C)c2ccccc2N2CCCCC2)ccc1C(=O)O [Repaglinide]
FP (mP) ([3]; TOCRIScreen library): 103.2 mP

COC(=O)[C@H]1[C@H]2C[C@@H]3c4[nH]c5cc(OC)ccc5c4CCN3C[C@H]2C[C@@H](OC(=O)c2cc(OC)c(OC)c(OC)c2)[C@@H]1OC [Reserpine]
FP (mP) [1, 6]: 88.4 mP

CS(=O)(=O)O.Cn1cc(C2=C(c3cn(CCCSC(=N)N)c4ccccc34)C(=O)NC2=O)c2ccccc21 [Ro 31-8220 mesylate]
FP (mP) [1, 5]: 57.9 mP

COc1cc(C(=O)NC2CCN(C)CC2)ccc1Nc1ncc2c(n1)N(C1CCCC1)CC(F)(F)C(=O)N2C [Ro 3280]
FP (mP) [1, 5]: 81.8 mP

N.N.N.N.N.N.N.N.N.N.N.N.N.N.[Cl-].[Cl-].[Cl-].[Cl-].[Cl-].[Cl-].[O-2].[O-2].[Ru+3].[Ru+3].[Ru+4] [Ruthenium red]
FP (mP) [1, 4]: 83.7 mP
FP (mP) ([3]; LOPAC 1280 library): 44.3 mP

Oc1c2ccccc2c2c3c(cccc13)N=N2 [SP600125]
FP (mP) ([3]; LOPAC 1280 library): 65 mP

O=C(Nc1cc(C(F)(F)F)cc(C(F)(F)F)c1)c1cnc(Cl)nc1C(F)(F)F [SP 100030]
FP (mP) [1, 5]: 70.3 mP

COc1ccc(CCN(C)CCCOc2ccc(S(=O)(=O)c3c(C(C)C)c4ccccc4n3C)cc2)cc1OC.O=C(O)C(=O)O [SR 33805 oxalate]
FP (mP) [1, 5]: 79 mP

Cc1[nH]c(/C=C2\C(=O)Nc3ccc(S(=O)(=O)N(C)c4cccc(Cl)c4)cc32)c(C)c1C(=O)N1CCN(C)CC1 [SU 11274]
FP (mP) [1, 5]: 64.5 mP

Clc1ccc(C(Cn2ccnc2)OCc2csc3c(Cl)cccc23)c(Cl)c1 (stereo not drawn) [Sertaconazole]
FP (mP) [1, 6]: 88.2 mP

COc1cc(C(=O)NC2CCN(C)CC2)c(F)cc1Nc1ncc2c(n1)N(C1CCCC1)CC(F)(F)C(=O)N2C.Cl [TAK 960 hydrochloride]
FP (mP) [1, 5]: 88 mP

Cc1cccc(C)c1-n1c(=O)c2cnc(Nc3ccc(N4CCN(C)CC4)cc3)nc2n2c3ccccc3nc12 [TC-S 7003]
FP (mP) [1, 5]: 73.5 mP

CCN1CCN(C(=O)Cc2ccc(Nc3ncc(F)c(Nc4ccc(C(=O)Nc5ccccc5Cl)cc4)n3)cc2)CC1 [TC-S 7010]
FP (mP) ([3]; TOCRIScreen library): 108.3 mP

O=[N+]([O-])c1ccc(CNc2nc(NCc3cccc(C(F)(F)F)c3)nc3nc[nH]c23)cc1 [TNP]
FP (mP) [1]: 90.9 mP

CC/C(=C(\c1ccccc1)c1ccc(OCCN(C)C)cc1)c1ccccc1 [Tamoxifen Citrate]
FP (mP) [1, 6]: 69.1 mP
FP (mP) [1, 5]: 62.2 mP

[H]/N=C(/NCCCCC)N/N=C/c1c[nH]c2ccc(OC)cc12 [Tegaserod maleate]
FP (mP) [1, 4]: 78.4 mP

CS(=O)(=O)O.c1cc2c(cc1C1CCCCC1)c1c3n2CCNC3CCC1 (stereo not drawn) [Tetrindole mesylate]
FP (mP) [1, 5]: 65 mP

CSc1ccc2c(c1)N(CCC1CCCCN1C)c1ccccc1S2 (stereo not drawn) [Thioridazine.HCl]
FP (mP) [1, 6]: 74.3 mP
FP (mP) [1, 4]: 89.4 mP

CN(C)CCOc1ccc(/C(=C(/CCCl)c2ccccc2)c2ccccc2)cc1 [Toremifene Base]
FP (mP) [1, 6]: 60.7 mP

CN1CCN(CCCN2c3ccccc3Sc3ccc(C(F)(F)F)cc32)CC1 [Trifluoperazine dihydrochloride]
FP (mP) [1, 4]: 84.5 mP

N#CC(C#N)=C(N)/C(C#N)=C/c1ccc(O)cc1 [Tyrphostin AG 112]
FP (mP) ([3]; LOPAC 1280 library): 115.8 mP

C[C@]12C=CC(=O)C=C1CC[C@@H]1C2=CC[C@]2(C)[C@@H](C(=O)CN3CCN(c4cc(N5CCCC5)nc(N5CCCC5)n4)CC3)CC[C@@H]12.O=C(O)/C=C\C(=O)O [U-74389G maleate]
FP (mP) ([3]; LOPAC 1280 library): 115.3 mP

CCCc1cc(C)[nH]c(=O)c1CNC(=O)c1cc(-c2ccc(N3CCN(C(C)C)CC3)nc2)cc2c1cnn2C(C)C [UNC 1999]
FP (mP) [1, 5]: 80.5 mP

COc1ccc(N(C(=O)Oc2c(C)cccc2C)c2ccnc(Nc3ccc(N4CCN(C)CC4)cc3)n2)c(OC)c1 [WH-4-023]
FP (mP) [1, 5]: 56.3 mP

CCCC[P+](CCCC)(CCCC)Cc1ccc(NC(=O)[C@H](Cc2ccc3ccccc3c2)NC(=NC2CCCCC2)NC2CCCCC2)cc1.Cl.[Cl-] [WIN 64338 hydrochloride]
FP (mP) ([3]; TOCRIScreen library): 71 mP

CCC(=O)Nc1cccc(Oc2nc(Nc3ccc(N4CCN(C)CC4)cc3OC)ncc2Cl)c1 [WZ4003]
FP (mP) [1, 4]: 86.4 mP

COc1cc(N2CCN(C)CC2)ccc1Nc1ncc2c(n1)N(C)c1ccccc1C(=O)N2 [XMD 8-87]
FP (mP) [1, 5]: 81.2 mP

COc1cc2c(Nc3ccc(NC(=O)c4ccccc4)cc3)ncnc2cc1OCCCN1CCOCC1 [ZM 447439]
FP (mP) [1, 5]: 89.2 mP

Cl.c1ccc(C2CCCC2NC2=NCCCCCCCCCCC2)cc1 (stereo not drawn) [cDPCP]
FP (mP) ([3]; LOPAC 1280 library): 67.5 mP

OCCN1CCN(CC/C=C2/c3ccccc3Sc3ccc(C(F)(F)F)cc32)CC1 [cis-(Z)-Flupenthixol dihydrochloride]
FP (mP) [1, 4]: 87.6 mP

(S)-(+)-Niguldipine hydrochloride
FP (mP) [1]: 85.7 mP

BMS-189453
FP (mP) [1, 4]: 88.8 mP

Colistin Sulfate
FP (mP) [1, 6]: 78.5 mP
FP (mP) ([3]; ENZO Screenwell library): 71.7 mP
